According to patent US6689813B2 (Biostatin Gyogyszerkutato-Fejleszto kft., priority 1998, dated 2004):
Where no end group is shown, it is not given here. [ ]: non-standard residue; d: D form.

Legend:
rats = assay: Bradykinin-induced non-neurogenic inflammation (Evans blue extravasation) after chronic denervation; type: in vivo, rat
Experimental: After chronic denervation (see 1.2.1.), each group of 5 rats received various doses (1, 2.5, 5, 10 or 20 μg, respectively, i.v.) of TT-232 and simultaneously Evans blue (50 mg/kg i.v.). Ten minutes later, bradykinin was injected underneath the plantar skin of the lower limbs of the rats. After 15 minutes the animals were bled and the amount of the extravasated Evans blue (expressed as […] related to the wet tissue) was determined as.described above (1.1.).

unanaesthetized animals = assay: Mechanical nociceptive threshold, Randall-Selitto test after carrageenin; type: in vivo; details: 30 minutes after carrageenin
Experimental: The mechanical nociceptive threshold was investigated by using the Randall-Selitto test (Ugo Basil equipment) on unanaesthetized animals. Before the beginning of the experiment, the animals were tested several times to provide their adaptation to the experimental conditions. The animals received TT-232 in various concentrations (1.25, 2.5, 5, 10 μg i.v.) and after 15 minutes, carrageenin (0.1 ml of 1% solution) was injected into the plantar skin of the lower limbs of the animals.

Wistar rats [1] = assay: 0.5% dextran-induced non-neurogenic inflammation (foot swelling, plethysmometer) after chronic denervation; type: in vivo, rat
Experimental: This test is based on the fact that a non-neurogenic, so-called clearly chemical inflammation can be induced by chemical excitation (e.g. by dextran, carrageenin, formalin) on a chronically denervated body area at least 5 days following the transsection of the nerve. These chemical agents release inflammation-inducing substances (histamine, bradykinin, PAF, prostaglandins and leucotrienes) from immunocytes, chiefly from mast cells.
Dextran solution (0.1 ml, 0.5%) is administered into both feet, underneath the plantar skin of Wistar rats (5 to 7 animals in each group) anaesthetized by nembutal (40 mg/kg i.v.) 5 days after bilateral denervation (transsection of the saphenous and sciatic nerves) of the lower limbs. The pretreated animals received somatostatin (SS), ocreotide or TT-232 (10 μg/kg i.p.) 10 minutes earlier. Before the administration of dextran (0 minute value), then after 10, 20 and 30 minutes, respectively, the swelling of the feet was measured by using a plethysmometer (Ugo Basil). Dextran elicits the so-called clearly chemical inflammation in the feet deprived of nerve supply (innervation) through the transmitters released from the mast cells.
A dose/effect ratio was determined for each substance.

Wistar rats [2] = assay: Analgetic action: vegetative (pseudoaffective) reflex responses to mustard oil and capsaicin under urethane anaesthesia; type: in vivo, rat; parameters: Increase in heart rate: unit not given here; details: 10 μg/kg i.p.
Description: This test is based on the synchronous registration of several components of so-called pseudoaffective reflex responses, which can be induced on animals by pain-producing stimuli [Lim, R. K. S.: J. Comp. Neurol 118, 269-294 (1962)] under urethane anaesthesia.
A significant blood pressure increase of 45 mmHg as an average pressor response, heart rate increase of 85 (as an average) and hyperpnoea (the number of respirations increases by 61 per minute as an average) can be observed in control animals on the effect of strong chemonociceptive stimuli (painting of the lower limbs with 1% mustard oil or dropping a capsaicin solution of 100 μg/ml concentration into the eye) under urethane anaesthesia.
The blood pressure, heart rate and respiration of intact Wistar rats (5 to 7 animals in each group, with a body weight of 250 to 350 g) were continuously registered for 40 minutes through an arterial cannula as well as double ramifying trachea cannula. Ten minutes before beginning the measurement, the pretreated animals received intraperitoneally 10 μg/kg of somatostatin (SS), octreotide or TT-232, respectively. Both lower limbs of the animals were painted with mustard oil in the 3rd minute and capsaicin solution was dropped into their eyes in the 23rd minute. The vegetative responses given on these nociceptive stimuli were evaluated by using a specific computer program.

[3] = tested on: release of sensory neuropeptides from the trachea of rats; assay: In vitro release of sensory neuropeptides (SP, CGRP, SOM) from the trachea of rats, RIA; parameters: species or system rat
Experimental: After bleeding out, the tracheas of two rats each were removed, placed into an organ bath (1.8 ml) and Krebs solution saturated with oxygen (95% of oxygen and 5% of carbon dioxide) was bubbled through it at 37° C. for 60 minutes (with a rate of 1 ml/min). After stopping the flow, the bath solution was changed 3 times (pre-stimulated—stimulated—post-stimulated) for 8 minutes. The release of sensory neuropeptides from the tissue samples was induced by electric (40 V, 0.1 ms, 10 Hz, 120 s) and chemical (10^−7 M of capsaicin) stimulation, in the presence or absence of TT-232 (200 nM, 500 nM). The fractions were collected in ice-cold tubes; the wet weights of tracheas were measured. The concentrations of substance P (SP), calcitonin gene-related peptide (CGRP) and somatostatin (SOM) were determined by using a specific radioimmunoassay (RIA) developed in our laboratory and expressed as the amount of peptide released from one g of tissue. The limits of measurements were: 2 fmol/tube for SP; 1 fmol/tube for CGRP; and 2 fmol/tube for SOM [Németh, J.: Acta Physiol. Hung. 84, 313-315 (1996); Helyes, Zs.: Br. J. Pharmacol. 121, 613-615 (1997)].

[4] = capsaicin stimulation, 200 nM TT-232
[5] = capsaicin stimulation, 500 nM TT-232
[6] = electrical stimulation, 500 nm TT-232

Q: For “D-Phe-Cys-Tyr-D-Trp-Lys-Cys-Thr-NH2 ([dF]CY[dW]KCT-NH2; cysteine pairing not given here) [TT-232]”, which Evans blue extravasation (rats; TT-232 1 μg/kg i.v., control (buffer) 127.35 ± 7.11) is on record?
A: Its Evans blue extravasation is 98.21 ± 7.44 µg/kg.

Q: What about the Evans blue extravasation (rats; TT-232 2.5 μg/kg i.v.) of the same substance?
A: The Evans blue extravasation was 85.02 ± 7.33 µg/kg.

Q: And the Evans blue extravasation (rats; TT-232 5 μg/kg i.v.)?
A: Its Evans blue extravasation is 81.95 ± 7.64 µg/kg.

Q: And the Evans blue extravasation (rats; TT-232 10 μg/kg i.v.)?
A: Its Evans blue extravasation is 86.31 ± 8.74 µg/kg.

Q: And the Evans blue extravasation (rats; TT-232 20 μg/kg i.v.)?
A: The Evans blue extravasation was 77.4 ± 4.59 µg/kg.

Q: And the “increase in the nociceptive threshold (analgetic effect)” value (shortened to “increase in the nociceptive threshold”) (unanaesthetized animals; 1.25 μg i.v.)?
A: The value was 30%.

Q: What about the “increase in the nociceptive threshold” value (unanaesthetized animals; 2.5 μg i.v.) of the same substance?
A: The value was 37%.

Q: What about the “increase in the nociceptive threshold” value (unanaesthetized animals; 5 μg i.v.) of the same substance?
A: The value was 50%.

Q: What about the “increase in the nociceptive threshold” value (unanaesthetized animals; 10 μg i.v.) of the same substance?
A: The value was 60%.

Q: And the “prevention of dextran-induced non-neurogenic inflammation (in words)” value (Wistar rats [1]; 10 μg/kg, even 40 minutes following the pretreatment)?
A: The value was “significantly prevented”.

Q: And the foot swelling % (Wistar rats [1]; Table 2.a, 0.5 μg/kg, 10 minutes)?
A: The foot swelling % was 27.63 ± 3.5%.

Q: What about the foot swelling % (Wistar rats [1]; Table 2.a, 0.5 μg/kg, 20 minutes) of the same substance?
A: Its foot swelling % is 39.94 ± 3.07%.

Q: What about the foot swelling % (Wistar rats [1]; Table 2.a, 0.5 μg/kg, 30 minutes) of the same substance?
A: The foot swelling % was 41.33 ± 5.95%.

Q: And the foot swelling % (Wistar rats [1]; Table 2.a, 1.0 μg/kg, 10 minutes)?
A: The foot swelling % was 20.51 ± 2.92%.

Q: And the foot swelling % (Wistar rats [1]; Table 2.a, 1.0 μg/kg, 20 minutes)?
A: The foot swelling % was 38.07 ± 3.12%.

Q: What about the foot swelling % (Wistar rats [1]; Table 2.a, 1.0 μg/kg, 30 minutes) of the same substance?
A: The foot swelling % was 44.32 ± 3.18%.

Q: And the foot swelling % (Wistar rats [1]; Table 2.a, 2.5 μg/kg, 10 minutes)?
A: The foot swelling % was 20.54 ± 5.16%.

Q: And the foot swelling % (Wistar rats [1]; Table 2.a, 2.5 μg/kg, 20 minutes)?
A: Its foot swelling % is 33.02 ± 4.46%.

Q: What about the foot swelling % (Wistar rats [1]; Table 2.a, 2.5 μg/kg, 30 minutes) of the same substance?
A: Its foot swelling % is 39.59 ± 4.76%.

Q: And the foot swelling % (Wistar rats [1]; Table 2.a, 5.0 μg/kg, 10 minutes)?
A: The foot swelling % was 17.29 ± 3.13%.

Q: And the foot swelling % (Wistar rats [1]; Table 2.a, 5.0 μg/kg, 20 minutes)?
A: Its foot swelling % is 27.81 ± 2.39%.

Q: And the foot swelling % (Wistar rats [1]; Table 2.a, 5.0 μg/kg, 30 minutes)?
A: Its foot swelling % is 35.95 ± 2.97%.

Q: What about the foot swelling % (Wistar rats [1]; Table 2.a, 10 μg/kg, 10 minutes) of the same substance?
A: The foot swelling % was 17.60 ± 2.05%.

Q: What about the foot swelling % (Wistar rats [1]; Table 2.a, 10 μg/kg, 20 minutes) of the same substance?
A: Its foot swelling % is 27.59 ± 2.5%.

Q: And the foot swelling % (Wistar rats [1]; Table 2.a, 10 μg/kg, 30 minutes)?
A: Its foot swelling % is 36.40 ± 1.71%.

Q: What about the foot swelling % (Wistar rats [1]; Table 2.a, 20 μg/kg, 10 minutes) of the same substance?
A: Its foot swelling % is 19.56 ± 1.71%.

Q: And the foot swelling % (Wistar rats [1]; Table 2.a, 20 μg/kg, 20 minutes)?
A: Its foot swelling % is 29.73 ± 1.7%.

Q: What about the foot swelling % (Wistar rats [1]; Table 2.a, 20 μg/kg, 30 minutes) of the same substance?
A: The foot swelling % was 37.67 ± 2.33%.

Q: What about the “prevention of foot-swelling compared with diclofenac and meloxicam (in words)” value (Wistar rats [1]; Table 2.a, TT-232 concentration a thousandth part of the others) of the same substance?
A: Its value is “more effectively”.

Q: What about the foot swelling % (Wistar rats [1]; Table 2, 10 μg/kg i.p. 10 min before dextran, 10 minutes, control 32.97) of the same substance?
A: The foot swelling % was 24.4%.

Q: What about the foot swelling % (Wistar rats [1]; Table 2, 10 μg/kg i.p. 10 min before dextran, 20 minutes, control 49.695) of the same substance?
A: Its foot swelling % is 34.39%.

Q: And the foot swelling % (Wistar rats [1]; Table 2, 10 μg/kg i.p. 10 min before dextran, 30 minutes, control 56.68)?
A: The foot swelling % was 29.43%.

Q: And the “protection against pseudoaffective reflex triad elicited by mustard oil and capsaicin (in words)” value (Wistar rats [2]; 10 minutes before mustard oil)?
A: The value was “practically complete protection”.

Q: What about the “Increase in respiration rate” value (Wistar rats [2]; after dropping capsaicin solution into the eye, control 47.5) of the same substance?
A: The value was 17.85 per minute.

Q: What about the “Increase in mean arterial pressure” value (Wistar rats [2]; after dropping capsaicin solution into the eye, control 55) of the same substance?
A: Its value is 13 mmHg.

Q: What about the “Increase in heart rate” value (Wistar rats [2]; after dropping capsaicin solution into the eye, control 143) of the same substance?
A: Its value is 22.88.

Q: What about the “Increase in mean arterial pressure” value (Wistar rats [2]; after painting the feet by mustard oil, control 45.4) of the same substance?
A: Its value is 4.86 mmHg.

Q: What about the “Increase in respiration rate” value (Wistar rats [2]; after painting the feet by mustard oil, control 60.75) of the same substance?
A: The value was 12 per minute.

Q: What about the “Increase in heart rate” value (Wistar rats [2]; after painting the feet by mustard oil, control 84.8) of the same substance?
A: The value was 13.71.

Q: What about the “decrease of capsaicin-induced SOM release” value [3, 4] of the same substance?
A: Its value is 48%.

Q: What about the “decrease of capsaicin-induced SP release” value [3, 4] of the same substance?
A: Its value is 44%.

Q: What about the “inhibition of capsaicin-induced CGRP release” value [3, 5] of the same substance?
A: The value was 27%.

Q: What about the “inhibition of capsaicin-induced SOM release” value [3, 5] of the same substance?
A: Its value is 74%.

Q: What about the “inhibition of capsaicin-induced SP release” value [3, 5] of the same substance?
A: The value was 79%.

Q: And the “inhibition of CGRP release” value [3, 6]?
A: Its value is 48%.

Q: And the “inhibition of SOM release” value [3, 6]?
A: The value was 42%.

Q: What about the “inhibition of SP release” value [3, 6] of the same substance?
A: Its value is 36%.

Q: What about the “amount of SOM released” value ([3]; electrical stimulation, 500 nm TT-232, without TT-232 0.51 fmol/mg) of the same substance?
A: The value was 0.39 fmol/mg.

Q: What about the “amount of CGRP released” value ([3]; electrical stimulation, 500 nm TT-232, without TT-232 0.69 fmol/mg) of the same substance?
A: The value was 0.36 fmol/mg.

Q: What about the “amount of SP released” value ([3]; electrical stimulation, 500 nm TT-232, without TT-232 6 fmol/mg) of the same substance?
A: The value was 3.8 fmol/mg.

Q: What about the “basal, non-stimulated release of the neuropeptides (in words)” value ([3]; no stimulation) of the same substance?
A: Its value is “not affected”.
